# Laboratory results from ChEMBL document CHEMBL5052819, “Peptide targeting gip and glp-2 receptors for treating bone disorders” (2020).
# Calls of active or inactive are those of the source. The calls are words filed in the database; no cut-off is given here.
# Experiments:
# [1] = tested on: MC3T3-E1; assay: Cytotoxicity against mouse MC3T3-E1 cells at 1 uM measured after 24 hrs by trypan blue assay; format: toxicity, cell-based; settings: mc3t3-e1, 24 h
# [2] = tested on: RAW264.7; assay: Inhibition of RANKL-induced osteoclastogenesis in mouse RAW264.7 cells measured after 110 hrs by TRAcP staining based assay; format: functional, cell-based; settings: RAW264.7, 110 h
# [3] = Toxicity in ovariectomized BALB/c mouse assessed as effect on body mass at 25 nmol/kg/day, sc; settings: in vivo
# [4] = tested on: Mus musculus; assay: Anti-osteoporosis activity in ovariectomized BALB/c mouse at 25 nmol/kg/day, sc assessed as increase in ultimate displacement of cortical bone; format: functional
# [5] = tested on: Mus musculus; assay: Anti-osteoporosis activity in ovariectomized BALB/c mouse at 25 nmol/kg/day, sc assessed as increase in post-yield displacement of cortical bone; format: functional
# [6] = tested on: Mus musculus; assay: Anti-osteoporosis activity in ovariectomized BALB/c mouse at 25 nmol/kg/day, sc assessed as increase in work-to-fracture of cortical bone; format: functional
# [7] = tested on: Mus musculus; assay: Anti-osteoporosis activity in ovariectomized BALB/c mouse at 25 nmol/kg/day, sc assessed as effect on cortical bone microarchitecture; format: functional, organism-based
# [8] = tested on: Mus musculus; assay: Anti-osteoporosis activity in ovariectomized BALB/c mouse at 25 nmol/kg/day, sc assessed as reduction in trabecular bone stiffness; format: functional, organism-based
# [9] = tested on: Mus musculus; assay: Anti-osteoporosis activity in ovariectomized BALB/c mouse at 25 nmol/kg, sc assessed as increase in collagen maturity; format: functional
# [10] = tested on: Mus musculus; assay: Anti-osteoporosis activity in ovariectomized BALB/c mouse at 25 nmol/kg, sc assessed as increase in collagen maturity heterogeneity; format: functional
# [11] = tested on: Mus musculus; assay: Anti-osteoporosis activity in ovariectomized BALB/c mouse at 25 nmol/kg, sc assessed as increase in acid phosphate content heterogeneity; format: functional
# [12] = tested on: Mus musculus; assay: Anti-osteoporosis activity in ovariectomized BALB/c mouse at 25 nmol/kg, sc assessed as decrease in mean phosphate/amide ratio; format: functional; design: scale not given: the % may be the effect or the level left
# [13] = Toxicity in ovariectomized BALB/c mouse at 25 nmol/kg, sc assessed as effect on morphological changes in liver; format: organism-based; settings: in vivo
# [14] = Toxicity in ovariectomized BALB/c mouse at 25 nmol/kg, sc assessed as effect on morphological changes in pancreas; format: organism-based; settings: in vivo
# [15] = tested on: HEK293; assay: Activation of GIP/GLP2 receptor transfected in human HEK293 cells assessed as increase in intracellular cAMP level at 1 nM; format: cell-based; settings: filed as activator
# [16] = Toxicity in ovariectomized BALB/c mouse assessed as effect on body mass at 25 to 100 nmol/kg/day, sc
smiles,measurement,setting,value
CC[C@H](C)[C@H](NC(=O)[C@H](CO)NC(=O)[C@H](CCSC)NC(=O)[C@H](CC(=O)O)NC(=O)[C@H](CO)NC(=O)CNC(=O)[C@H](Cc1ccccc1)NC(=O)[C@H](CO)NC(=O)CNC(=O)[C@H](CCC(=O)O)NC(=O)CNC(=O)[C@@H](N)Cc1cnc[nH]1)C(=O)N[C@@H](C)C(=O)N[C@@H](CC(C)C)C(=O)N[C@@H](CC(=O)O)C(=O)N[C@@H](CCCCN)C(=O)N[C@@H](CC(C)C)C(=O)N[C@@H](C)C(=O)N[C@@H](C)C(=O)N[C@@H](CCCNC(=N)N)C(=O)N[C@@H](CC(=O)O)C(=O)N[C@@H](Cc1ccccc1)C(=O)N[C@H](C(=O)N[C@@H](CC(N)=O)C(=O)N[C@@H](Cc1c[nH]c2ccccc12)C(=O)N[C@@H](CC(C)C)C(=O)N[C@@H](CC(C)C)C(=O)N[C@@H](CCC(N)=O)C(=O)N[C@H](C(=O)N[C@@H](CCCCN)C(=O)N[C@H](C(=O)N[C@H](C(=O)N[C@@H](CC(=O)O)C(N)=O)[C@@H](C)O)[C@@H](C)CC)[C@@H](C)O)C(C)C,Activity,[1],Non-Toxic
same,IC50,[2],0.0182 nM
same,Activity,[3],Non-Toxic
same,Activity,[4],34%
same,Activity,[5],70%
same,Activity,[6],37%
same,Activity,[7],inactive
same,Activity,[8],Active
same,Activity,[9],10%
same,Activity,[10],28%
same,Activity,[11],21%
same,Activity,[12],6%
same,Activity,[13],Non-Toxic
same,Activity,[14],Non-Toxic
same,Activity,[15],Active
CSCC[C@H](NC(=O)[C@H](CC(=O)O)NC(=O)[C@H](CO)NC(=O)[C@@H](NC(=O)[C@H](Cc1ccccc1)NC(=O)[C@H](CO)NC(=O)CNC(=O)[C@H](CCC(=O)O)NC(=O)CNC(=O)[C@@H](N)Cc1cnc[nH]1)C(C)C)C(=O)N[C@@H](CO)C(=O)N[C@H](C(=O)N[C@H](C(=O)N[C@@H](CC(C)C)C(=O)N[C@@H](CC(=O)O)C(=O)N[C@@H](CCCCN)C(=O)N[C@@H](CC(C)C)C(=O)N[C@@H](C)C(=O)N[C@@H](C)C(=O)N[C@@H](CCCNC(=N)N)C(=O)N[C@@H](CC(=O)O)C(=O)N[C@@H](Cc1ccccc1)C(=O)N[C@H](C(=O)N[C@@H](CC(N)=O)C(=O)N[C@@H](Cc1c[nH]c2ccccc12)C(=O)N[C@@H](CC(C)C)C(=O)N[C@@H](CC(C)C)C(=O)N[C@@H](CCC(N)=O)C(=O)N[C@H](C(=O)N[C@@H](CCCCN)C(N)=O)[C@@H](C)O)C(C)C)C(C)C)C(C)C,IC50,[2],0.0116 nM
CC[C@H](C)[C@H](NC(=O)[C@H](CO)NC(=O)[C@H](CCSC)NC(=O)[C@H](CCC(=O)O)NC(=O)[C@H](CO)NC(=O)[C@@H](NC(=O)[C@H](Cc1ccccc1)NC(=O)[C@H](CO)NC(=O)CNC(=O)[C@H](CCC(=O)O)NC(=O)CNC(=O)[C@@H](N)Cc1cnc[nH]1)C(C)C)C(=O)N[C@H](C(=O)N[C@@H](CC(C)C)C(=O)N[C@@H](CC(=O)O)C(=O)N[C@@H](CCCCN)C(=O)N[C@@H](CC(C)C)C(=O)N[C@@H](C)C(=O)N[C@@H](C)C(=O)N[C@@H](CCCNC(=N)N)C(=O)N[C@@H](CC(=O)O)C(=O)N[C@@H](Cc1ccccc1)C(=O)N[C@H](C(=O)N[C@@H](CC(N)=O)C(=O)N[C@@H](Cc1c[nH]c2ccccc12)C(=O)N[C@@H](CC(C)C)C(=O)N[C@@H](CC(C)C)C(=O)N[C@@H](CCC(N)=O)C(=O)N[C@H](C(=O)N[C@@H](CCCCN)C(N)=O)[C@@H](C)O)C(C)C)C(C)C,IC50,[2],4.63 nM
CC(C)C[C@H](NC(=O)[C@H](CCCCN)NC(=O)[C@H](CC(=O)O)NC(=O)[C@H](CC(C)C)NC(=O)[C@@H](NC(=O)[C@@H](NC(=O)[C@H](CO)NC(=O)[C@H](CC(C)C)NC(=O)[C@H](CC(=O)O)NC(=O)[C@H](CO)NC(=O)[C@@H](NC(=O)[C@H](Cc1ccccc1)NC(=O)[C@H](CO)NC(=O)CNC(=O)[C@H](CCC(=O)O)NC(=O)CNC(=O)[C@@H](N)Cc1cnc[nH]1)C(C)C)C(C)C)C(C)C)C(=O)N[C@@H](C)C(=O)N[C@@H](C)C(=O)N[C@@H](CCCNC(=N)N)C(=O)N[C@@H](CC(=O)O)C(=O)N[C@@H](Cc1ccccc1)C(=O)N[C@H](C(=O)N[C@@H](CC(N)=O)C(=O)N[C@@H](Cc1c[nH]c2ccccc12)C(=O)N[C@@H](CC(C)C)C(=O)N[C@@H](CC(C)C)C(=O)N[C@@H](CCC(N)=O)C(=O)N[C@H](C(=O)N[C@@H](CCCCN)C(N)=O)[C@@H](C)O)C(C)C,IC50,[2],0.0107 nM
CC[C@H](C)[C@H](NC(=O)[C@H](CO)NC(=O)[C@H](CCSC)NC(=O)[C@H](CC(=O)O)NC(=O)[C@H](CO)NC(=O)[C@@H](NC(=O)[C@H](Cc1ccccc1)NC(=O)[C@H](CO)NC(=O)CNC(=O)[C@H](CCC(=O)O)NC(=O)CNC(=O)[C@@H](N)Cc1cnc[nH]1)C(C)C)C(=O)N[C@H](C(=O)N[C@@H](CC(C)C)C(=O)N[C@@H](CC(=O)O)C(=O)N[C@@H](CCCCN)C(=O)N[C@@H](CC(C)C)C(=O)N[C@@H](C)C(=O)N[C@@H](C)C(=O)N[C@@H](CCCNC(=N)N)C(=O)N[C@@H](CC(=O)O)C(=O)N[C@@H](Cc1ccccc1)C(=O)N[C@H](C(=O)N[C@@H](CC(N)=O)C(=O)N[C@@H](Cc1c[nH]c2ccccc12)C(=O)N[C@@H](CC(C)C)C(=O)N[C@@H](CC(C)C)C(=O)N[C@@H](CCC(N)=O)C(=O)N[C@H](C(=O)N[C@@H](CCCCN)C(N)=O)[C@@H](C)O)C(C)C)C(C)C,IC50,[16],Non-Toxic
CC[C@H](C)[C@H](NC(=O)[C@H](CO)NC(=O)[C@H](Cc1ccccc1)NC(=O)[C@H](CC(=O)O)NC(=O)[C@H](CO)NC(=O)[C@@H](NC(=O)[C@H](Cc1ccccc1)NC(=O)[C@H](CO)NC(=O)CNC(=O)[C@H](CCC(=O)O)NC(=O)CNC(=O)[C@@H](N)Cc1cnc[nH]1)C(C)C)C(=O)N[C@@H](C)C(=O)N[C@@H](CC(C)C)C(=O)N[C@@H](CC(=O)O)C(=O)N[C@@H](CCCCN)C(=O)N[C@@H](CC(C)C)C(=O)N[C@@H](C)C(=O)N[C@@H](C)C(=O)N[C@@H](CCCNC(=N)N)C(=O)N[C@@H](CC(=O)O)C(=O)N[C@@H](Cc1ccccc1)C(=O)N[C@H](C(=O)N[C@@H](CC(N)=O)C(=O)N[C@@H](Cc1c[nH]c2ccccc12)C(=O)N[C@@H](CC(C)C)C(=O)N[C@@H](CC(C)C)C(=O)N[C@@H](CCC(N)=O)C(=O)N[C@H](C(=O)N[C@@H](CCCCN)C(N)=O)[C@@H](C)O)C(C)C,IC50,[2],0.18 nM
CC(C)C[C@H](NC(=O)[C@H](CCCCN)NC(=O)[C@H](CC(=O)O)NC(=O)[C@H](CC(C)C)NC(=O)[C@@H](NC(=O)[C@@H](NC(=O)[C@H](CO)NC(=O)[C@H](Cc1ccccc1)NC(=O)[C@H](CC(=O)O)NC(=O)[C@H](CO)NC(=O)[C@@H](NC(=O)[C@H](Cc1ccccc1)NC(=O)[C@H](CO)NC(=O)CNC(=O)[C@H](CCC(=O)O)NC(=O)CNC(=O)[C@@H](N)Cc1cnc[nH]1)C(C)C)C(C)C)C(C)C)C(=O)N[C@@H](C)C(=O)N[C@@H](C)C(=O)N[C@@H](CCCNC(=N)N)C(=O)N[C@@H](CC(=O)O)C(=O)N[C@@H](Cc1ccccc1)C(=O)N[C@H](C(=O)N[C@@H](CC(N)=O)C(=O)N[C@@H](Cc1c[nH]c2ccccc12)C(=O)N[C@@H](CC(C)C)C(=O)N[C@@H](CC(C)C)C(=O)N[C@@H](CCC(N)=O)C(=O)N[C@H](C(=O)N[C@@H](CCCCN)C(N)=O)[C@@H](C)O)C(C)C,IC50,[2],0.0096 nM
CC[C@H](C)[C@H](NC(=O)[C@H](CO)NC(=O)[C@H](Cc1ccc(O)cc1)NC(=O)[C@H](CC(=O)O)NC(=O)[C@H](CO)NC(=O)[C@@H](NC(=O)[C@H](Cc1ccccc1)NC(=O)[C@@H](NC(=O)CNC(=O)[C@H](CCC(=O)O)NC(=O)[C@@H](C)NC(=O)[C@@H](N)Cc1ccc(O)cc1)[C@@H](C)O)[C@@H](C)CC)C(=O)N[C@@H](C)C(=O)N[C@@H](CCSC)C(=O)N[C@@H](CC(=O)O)C(=O)N[C@@H](CCCCN)C(=O)N[C@H](C(=O)N[C@@H](Cc1cnc[nH]1)C(=O)N[C@@H](CCC(N)=O)C(=O)N[C@@H](CCC(N)=O)C(=O)N[C@@H](CC(=O)O)C(=O)N[C@@H](Cc1ccccc1)C(=O)N[C@H](C(=O)N[C@@H](CC(N)=O)C(=O)N[C@@H](Cc1c[nH]c2ccccc12)C(=O)N[C@@H](CC(C)C)C(=O)N[C@@H](CC(C)C)C(=O)N[C@@H](C)C(=O)N[C@@H](CCC(N)=O)C(=O)N[C@@H](CCCCN)C(N)=O)C(C)C)[C@@H](C)CC,IC50,[2],0.0401 nM
same,Activity,[15],Active
CC[C@H](C)[C@H](NC(=O)[C@H](CO)NC(=O)[C@H](Cc1ccccc1)NC(=O)[C@H](CC(=O)O)NC(=O)[C@H](CO)NC(=O)[C@@H](NC(=O)[C@H](Cc1ccccc1)NC(=O)[C@H](CO)NC(=O)CNC(=O)[C@H](CCC(=O)O)NC(=O)CNC(=O)[C@@H](N)Cc1cnc[nH]1)[C@@H](C)O)C(=O)N[C@@H](C)C(=O)N[C@@H](CC(C)C)C(=O)N[C@@H](CC(=O)O)C(=O)N[C@@H](CCCCN)C(=O)N[C@@H](CC(C)C)C(=O)N[C@@H](C)C(=O)N[C@@H](C)C(=O)N[C@@H](CCCNC(=N)N)C(=O)N[C@@H](CC(=O)O)C(=O)N[C@@H](Cc1ccccc1)C(=O)N[C@H](C(=O)N[C@@H](CC(N)=O)C(=O)N[C@@H](Cc1c[nH]c2ccccc12)C(=O)N[C@@H](CC(C)C)C(=O)N[C@@H](CC(C)C)C(=O)N[C@@H](CCC(N)=O)C(=O)N[C@H](C(=O)N[C@@H](CCCCN)C(N)=O)[C@@H](C)O)C(C)C,IC50,[2],0.0168 nM
